Results as given in ChEMBL document CHEMBL1201862, “PubChem BioAssay data set” (2004).
The source made the active and inactive calls.

What was measured:
[1] = target: T1, Streptokinase A (Streptococcus pyogenes serotype M1, UniProt P10520); experiment: S. pyogenes streptokinase expression inhibitors, potency, dose response, plasminogen activation absorbance, OD405 (AID 1914); type: functional, Streptococcus pyogenes M1 GAS;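 note: secreted streptokinase activity via plasminogen activation per viability signal from cell pellet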
T1 sequence (P10520 whole entry): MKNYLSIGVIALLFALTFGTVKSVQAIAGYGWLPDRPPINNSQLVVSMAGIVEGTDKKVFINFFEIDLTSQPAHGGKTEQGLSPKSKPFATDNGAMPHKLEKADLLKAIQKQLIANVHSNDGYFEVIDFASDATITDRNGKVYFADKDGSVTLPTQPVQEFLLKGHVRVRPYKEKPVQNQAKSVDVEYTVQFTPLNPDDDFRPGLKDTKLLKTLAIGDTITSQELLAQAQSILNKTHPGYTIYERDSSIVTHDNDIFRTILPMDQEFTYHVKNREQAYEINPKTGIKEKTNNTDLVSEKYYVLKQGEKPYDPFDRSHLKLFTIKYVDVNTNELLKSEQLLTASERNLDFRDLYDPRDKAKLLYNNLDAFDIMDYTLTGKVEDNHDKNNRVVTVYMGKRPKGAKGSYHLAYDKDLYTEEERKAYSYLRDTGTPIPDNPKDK

[2] = target: T2, Corticotropin-releasing factor receptor 2/Corticotropin-releasing factor-binding protein (Homo sapiens, UniProt P24387+Q13324); experiment: Dose Response confirmation of uHTS hits for small molecule antagonists of the CRF-binding protein and CRF-R2 receptor complex.; type: functional; details: read-out: IC50_Mean
T2 sequence (Q13324 whole entry): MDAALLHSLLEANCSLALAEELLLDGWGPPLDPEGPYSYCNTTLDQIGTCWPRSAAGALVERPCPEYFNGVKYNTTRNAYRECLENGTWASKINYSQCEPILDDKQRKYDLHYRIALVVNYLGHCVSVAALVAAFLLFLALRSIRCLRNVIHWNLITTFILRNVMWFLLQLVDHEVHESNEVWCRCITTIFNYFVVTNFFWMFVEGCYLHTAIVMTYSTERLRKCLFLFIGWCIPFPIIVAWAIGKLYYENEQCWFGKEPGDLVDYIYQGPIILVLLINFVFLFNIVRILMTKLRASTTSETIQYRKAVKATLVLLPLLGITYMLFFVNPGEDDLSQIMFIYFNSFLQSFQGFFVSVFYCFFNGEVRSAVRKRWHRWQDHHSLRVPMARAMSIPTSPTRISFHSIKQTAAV
T2 sequence (P24387 whole entry): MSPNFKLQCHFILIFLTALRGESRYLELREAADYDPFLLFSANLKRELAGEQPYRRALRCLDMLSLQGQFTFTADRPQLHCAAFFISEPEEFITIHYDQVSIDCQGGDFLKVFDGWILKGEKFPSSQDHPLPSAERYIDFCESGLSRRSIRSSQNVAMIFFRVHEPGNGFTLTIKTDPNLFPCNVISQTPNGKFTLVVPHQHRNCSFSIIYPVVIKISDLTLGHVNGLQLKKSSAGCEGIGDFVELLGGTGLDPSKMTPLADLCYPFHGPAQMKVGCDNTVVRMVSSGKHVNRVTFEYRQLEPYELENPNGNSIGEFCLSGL

[3] = C. albicans growth with fluconazole, confirmation, fluorescence, retest (AID 2467); type: functional, cell-based
[4] = test system: HEK293; experiment: cells; type: functional, cell-based; details: Homo sapiens
[5] = target: Nucleotide-binding oligomerization domain-containing protein 2 (Homo sapiens, UniProt Q9HC29); experiment: PubChem AID 2334; type: functional
[6] = target: T2, Corticotropin-releasing factor receptor 2/Corticotropin-releasing factor-binding protein; experiment: activators of CRF receptor 2 with binding protein – uHTS hits, confirmation (AID 602473); type: functional; details: read-out: EC50_Mean
[7] = test system: HEK293; experiment: cells; details: Homo sapiens
[8] = target: Nucleotide-binding oligomerization domain-containing protein 1 (Homo sapiens, UniProt Q9Y239); experiment: NOD1 signaling inhibitors, SAR follow-up, revised (AID 2333); type: functional
[9] = target: Tumor necrosis factor (Homo sapiens, UniProt P01375); experiment: TNFa-triggered NF-kB activation inhibitors, SAR follow-up, cell-based, revised (AID 2337); type: functional
[10] = test system: Streptococcus sp. 'group A'; experiment: growth inhibition of control SK(-) GAS strain, dose response, counter-screen for streptokinase expression inhibitor project, luminescence, kanamycin, BacTiterGlo, confirmation (AID 1900); type: functional, organism-based
[11] = CRF-BP/CRF-R2 complex antagonists, dose response, cell-based, uHTS hits, 384-well (AID 651639); type: functional, Homo sapiens; details: read-out: IC50_Mean
[12] = target: Serine/threonine-protein phosphatase (Candida dubliniensis (strain CD36 / CBS 7987 / NCPF 3949 / NRRLY-17841) (Yeast), UniProt B9W6M3); experiment: calcineurin pathway inhibitors in yeast reporter, dose response, S. cerevisiae, CDRE-lacZ, luminescence, secondary (AID 2388); type: functional, cell-based;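 note: yeast reporter cells carrying a calcineurin-responsive lacZ construct stimulated with calcium chloride; luminescent beta-galactosidase reporter signal in whole cells rather than isolated phosphatase activity; potency for inhibition where a drop in reporter signal means calcineurin blockade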
[13] = NIH-3T3 fibroblast cytotoxicity, dose response, cytotoxicity control, cell-based, fluorescence, Alamar Blue, secondary assay (AID 2327); type: functional;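 note: NIH-3T3 mouse fibroblasts cultured with fluconazole at 8 µg/mL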
[14] = test system: HEK293; experiment: NOD2 signaling inhibitors in MDP-stimulated cells, cell-based, uHTS, luminescence (AID 2001); type: functional; details: Homo sapiens
[15] = test system: HEK293; experiment: cells; type: functional, cell-based; details: Homo sapiens; remark: listed apart in the source
[16] = target: ATP-dependent molecular chaperone HSP82 (Candida albicans (strain WO-1) (Yeast), UniProt C4YTQ8); experiment: loss of DOC-induced GRE-beta-galactosidase reporter signal, dose response, Hsp90 inhibitor project, S. cerevisiae, luminescence (AID 2400); type: functional, cell-based;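 note: beta-galactosidase luminescence from glucocorticoid response element reporter as proxy for Hsp90 function; inhibitor potency where signal loss means Hsp90 inhibition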
[17] = test system: HEK293; experiment: NOD1 signaling inhibitors, primary screen, cell-based, luminescence, uHTS (AID 1578); type: functional; details: Homo sapiens
[18] = test system: Streptococcus; experiment: Group A Streptococcus viability loss, dose response, counter-screen for streptokinase expression inhibitor project, luminescence, BacTiterGlo (AID 1915); type: functional, organism-based;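 note: potency for reduction of bacterial viability or growth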
[19] = target: T3, Carboxy-terminal domain RNA polymerase II polypeptide A small phosphatase 1 (Homo sapiens, UniProt Q9GZU7); experiment: inhibitors of CTDSP1, concentration-response testing, biochemical assay, absorbance-based, actives from ultra-high-throughput screening (AID 540297); type: functional
T3 sequence (Q9GZU7 whole entry): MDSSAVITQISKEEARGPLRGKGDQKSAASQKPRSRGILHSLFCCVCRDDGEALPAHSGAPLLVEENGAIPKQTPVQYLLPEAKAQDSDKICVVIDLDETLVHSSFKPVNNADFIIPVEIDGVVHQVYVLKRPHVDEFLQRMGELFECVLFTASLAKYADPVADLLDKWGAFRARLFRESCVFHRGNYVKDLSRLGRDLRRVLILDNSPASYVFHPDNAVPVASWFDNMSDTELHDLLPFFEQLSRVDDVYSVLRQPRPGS

[20] = target: Beta-2 adrenergic receptor (Homo sapiens, UniProt P07550); experiment: beta2AR agonists driving receptor internalization, dose response, cell-based, FAP fluorogen, flow cytometry, cherry pick 1 (AID 588763); type: functional
[21] = HepG2 cell cytotoxicity, dose response, cytotoxicity control for Shn3 inhibitor project, CellTiter-Glo, cherry-picked (AID 624134); type: functional, cell-based
[22] = target: Beta Lactamase (Pseudomonas aeruginosa, UniProt Q932Y6); experiment: beta-lactamase reporter inhibitor potency, dose response, artefact control for TLR9-MyD88 binding inhibitor project, BLA reporter cells, FRET fluorescence (AID 588341); type: cell-based;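 note: cell based assay in CHO-K1 cells stably expressing beta-lactamase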
[23] = test system: CHO; experiment: cytotoxicity in TLR9-MyD88 CHO cells, dose response, cytotoxicity control for TLR9-MyD88 binding inhibitor project, cell-based, luminescence (AID 588339); type: functional, hamster; details: Cricetulus griseus;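 note: CHO cells stably coexpressing TLR9 and MyD88 fusions from primary screen; compound exposure lasted 48 hours before viability readout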
[24] = target: T4, High affinity choline transporter 1 (Homo sapiens, UniProt Q9GZV3); experiment: CHT inhibitors, dose response, cell-based, 5-point CRC, membrane potential dye (AID 504840); type: functional
T4 sequence (Q9GZV3 whole entry): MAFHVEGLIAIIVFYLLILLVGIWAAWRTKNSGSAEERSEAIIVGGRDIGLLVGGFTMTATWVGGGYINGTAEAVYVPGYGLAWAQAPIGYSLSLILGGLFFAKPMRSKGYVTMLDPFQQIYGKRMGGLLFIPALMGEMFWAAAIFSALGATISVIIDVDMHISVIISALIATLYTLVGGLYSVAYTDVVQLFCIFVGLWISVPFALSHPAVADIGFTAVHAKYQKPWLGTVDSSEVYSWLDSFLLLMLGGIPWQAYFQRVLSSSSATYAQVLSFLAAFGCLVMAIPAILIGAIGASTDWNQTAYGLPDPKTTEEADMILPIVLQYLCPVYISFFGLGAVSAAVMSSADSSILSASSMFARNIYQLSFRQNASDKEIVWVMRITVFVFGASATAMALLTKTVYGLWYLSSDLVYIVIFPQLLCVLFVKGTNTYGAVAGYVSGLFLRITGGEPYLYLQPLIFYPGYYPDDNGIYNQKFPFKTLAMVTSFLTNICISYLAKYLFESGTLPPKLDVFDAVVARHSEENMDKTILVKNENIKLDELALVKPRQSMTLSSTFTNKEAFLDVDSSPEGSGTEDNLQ

[25] = control 3'UTR Renilla luciferase suppression, dose response, counter-screen for Shn3 inhibitor project, cell-based, Clone20-Shn3RL, cherry-picked (AID 624133); type: functional
[26] = Shn3 3'UTR reporter inhibitors, dose response, cell-based, Clone20 osteoblasts, firefly luciferase, cherry-picked (AID 624132); type: functional;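 note: firefly luciferase luminescence from reporter carrying the Shn3 3'UTR in osteoblasts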
[27] = target: DNA damage-inducible transcript 3 protein (Mus musculus, UniProt P35639); type: functional, Cricetulus griseus
[28] = test system: MDCK; experiment: MDCK cell cytotoxicity, dose response, cytotoxicity control (AID 540296); type: functional; details: Canis lupus familiaris
[29] = test system: Vero; experiment: Vero E6 cell cytotoxicity, dose response, cytotoxicity control (AID 540298); type: functional; details: Chlorocebus sabaeus
[30] = test system: MDCK; experiment: antiviral activity against H1N1 influenza, dose response, cell-based, strain KY136 (AID 540257); type: functional; details: Canis lupus familiaris

Sequence of Tumor necrosis factor (P01375 whole entry): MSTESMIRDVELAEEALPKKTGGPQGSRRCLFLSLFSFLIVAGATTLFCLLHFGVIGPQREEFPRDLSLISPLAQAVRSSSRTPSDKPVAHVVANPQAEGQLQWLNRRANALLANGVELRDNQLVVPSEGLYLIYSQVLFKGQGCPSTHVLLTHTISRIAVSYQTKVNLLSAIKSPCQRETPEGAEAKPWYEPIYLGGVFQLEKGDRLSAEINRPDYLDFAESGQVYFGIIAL
Sequence of Serine/threonine-protein phosphatase (B9W6M3 whole entry): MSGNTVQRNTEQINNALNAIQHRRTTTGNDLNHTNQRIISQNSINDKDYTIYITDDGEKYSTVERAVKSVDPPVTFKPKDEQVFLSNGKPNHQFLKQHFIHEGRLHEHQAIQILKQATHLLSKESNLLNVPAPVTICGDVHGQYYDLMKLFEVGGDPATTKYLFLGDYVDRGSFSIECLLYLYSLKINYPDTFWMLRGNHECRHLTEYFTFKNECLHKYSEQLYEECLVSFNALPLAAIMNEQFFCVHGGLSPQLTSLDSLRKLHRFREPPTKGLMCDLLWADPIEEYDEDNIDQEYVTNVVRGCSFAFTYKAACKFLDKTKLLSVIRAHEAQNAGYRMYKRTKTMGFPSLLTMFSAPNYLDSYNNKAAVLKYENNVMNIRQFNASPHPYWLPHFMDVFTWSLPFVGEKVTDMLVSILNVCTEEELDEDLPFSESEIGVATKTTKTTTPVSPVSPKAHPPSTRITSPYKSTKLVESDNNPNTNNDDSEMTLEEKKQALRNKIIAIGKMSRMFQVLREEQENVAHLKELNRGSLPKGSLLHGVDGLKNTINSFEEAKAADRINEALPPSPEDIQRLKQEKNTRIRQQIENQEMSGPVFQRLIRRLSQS
Sequence of ATP-dependent molecular chaperone HSP82 (C4YTQ8 whole entry): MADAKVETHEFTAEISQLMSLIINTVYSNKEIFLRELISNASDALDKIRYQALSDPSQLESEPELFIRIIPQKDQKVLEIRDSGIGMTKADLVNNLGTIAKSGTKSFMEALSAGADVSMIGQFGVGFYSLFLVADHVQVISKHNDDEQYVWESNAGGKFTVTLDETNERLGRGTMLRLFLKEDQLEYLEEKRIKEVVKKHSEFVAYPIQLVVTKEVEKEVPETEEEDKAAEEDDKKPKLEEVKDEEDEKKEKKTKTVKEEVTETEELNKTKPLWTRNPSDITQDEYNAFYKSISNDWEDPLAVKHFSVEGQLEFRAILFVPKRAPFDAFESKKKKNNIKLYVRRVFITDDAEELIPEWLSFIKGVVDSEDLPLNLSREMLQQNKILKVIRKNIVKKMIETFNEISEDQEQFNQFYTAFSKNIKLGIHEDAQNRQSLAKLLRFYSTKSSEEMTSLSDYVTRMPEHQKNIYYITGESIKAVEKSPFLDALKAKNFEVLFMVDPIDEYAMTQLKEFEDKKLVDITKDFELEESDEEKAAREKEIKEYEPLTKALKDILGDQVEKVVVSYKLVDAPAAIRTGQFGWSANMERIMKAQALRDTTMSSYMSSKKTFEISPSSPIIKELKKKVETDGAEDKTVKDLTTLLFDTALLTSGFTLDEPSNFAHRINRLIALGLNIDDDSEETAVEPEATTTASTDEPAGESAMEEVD
Sequence of Nucleotide-binding oligomerization domain-containing protein 1 (Q9Y239 whole entry, the tested form may be a part): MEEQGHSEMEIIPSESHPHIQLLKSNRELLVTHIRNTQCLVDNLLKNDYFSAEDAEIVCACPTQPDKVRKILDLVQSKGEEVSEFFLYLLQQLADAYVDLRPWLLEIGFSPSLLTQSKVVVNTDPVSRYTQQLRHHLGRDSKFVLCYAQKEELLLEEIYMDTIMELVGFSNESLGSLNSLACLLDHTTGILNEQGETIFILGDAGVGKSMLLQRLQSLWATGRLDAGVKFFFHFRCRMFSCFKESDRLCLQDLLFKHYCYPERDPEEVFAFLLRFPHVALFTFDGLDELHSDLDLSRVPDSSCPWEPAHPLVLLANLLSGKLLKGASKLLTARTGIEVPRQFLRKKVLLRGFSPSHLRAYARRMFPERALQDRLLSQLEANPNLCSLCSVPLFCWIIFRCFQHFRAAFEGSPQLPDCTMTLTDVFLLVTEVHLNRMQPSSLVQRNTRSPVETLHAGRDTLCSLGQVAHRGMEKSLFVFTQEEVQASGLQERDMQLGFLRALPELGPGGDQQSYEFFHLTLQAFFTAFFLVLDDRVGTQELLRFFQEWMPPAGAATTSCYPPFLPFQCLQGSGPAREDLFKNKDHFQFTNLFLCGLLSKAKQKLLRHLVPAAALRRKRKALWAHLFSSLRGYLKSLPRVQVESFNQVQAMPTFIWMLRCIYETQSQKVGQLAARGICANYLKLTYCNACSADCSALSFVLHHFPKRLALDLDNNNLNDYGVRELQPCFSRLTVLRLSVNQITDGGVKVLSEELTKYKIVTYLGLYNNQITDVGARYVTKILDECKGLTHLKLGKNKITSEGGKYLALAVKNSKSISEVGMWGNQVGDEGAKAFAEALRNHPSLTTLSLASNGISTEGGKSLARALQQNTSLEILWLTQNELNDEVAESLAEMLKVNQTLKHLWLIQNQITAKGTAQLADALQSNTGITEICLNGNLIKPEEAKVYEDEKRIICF
Sequence of DNA damage-inducible transcript 3 protein (P35639 whole entry): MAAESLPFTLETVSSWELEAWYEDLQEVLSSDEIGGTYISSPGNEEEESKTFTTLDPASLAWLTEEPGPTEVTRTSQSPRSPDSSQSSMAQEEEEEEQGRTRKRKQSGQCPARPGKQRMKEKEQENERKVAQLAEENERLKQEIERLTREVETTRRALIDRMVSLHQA
Sequence of Nucleotide-binding oligomerization domain-containing protein 2 (Q9HC29 whole entry, the tested form may be a part): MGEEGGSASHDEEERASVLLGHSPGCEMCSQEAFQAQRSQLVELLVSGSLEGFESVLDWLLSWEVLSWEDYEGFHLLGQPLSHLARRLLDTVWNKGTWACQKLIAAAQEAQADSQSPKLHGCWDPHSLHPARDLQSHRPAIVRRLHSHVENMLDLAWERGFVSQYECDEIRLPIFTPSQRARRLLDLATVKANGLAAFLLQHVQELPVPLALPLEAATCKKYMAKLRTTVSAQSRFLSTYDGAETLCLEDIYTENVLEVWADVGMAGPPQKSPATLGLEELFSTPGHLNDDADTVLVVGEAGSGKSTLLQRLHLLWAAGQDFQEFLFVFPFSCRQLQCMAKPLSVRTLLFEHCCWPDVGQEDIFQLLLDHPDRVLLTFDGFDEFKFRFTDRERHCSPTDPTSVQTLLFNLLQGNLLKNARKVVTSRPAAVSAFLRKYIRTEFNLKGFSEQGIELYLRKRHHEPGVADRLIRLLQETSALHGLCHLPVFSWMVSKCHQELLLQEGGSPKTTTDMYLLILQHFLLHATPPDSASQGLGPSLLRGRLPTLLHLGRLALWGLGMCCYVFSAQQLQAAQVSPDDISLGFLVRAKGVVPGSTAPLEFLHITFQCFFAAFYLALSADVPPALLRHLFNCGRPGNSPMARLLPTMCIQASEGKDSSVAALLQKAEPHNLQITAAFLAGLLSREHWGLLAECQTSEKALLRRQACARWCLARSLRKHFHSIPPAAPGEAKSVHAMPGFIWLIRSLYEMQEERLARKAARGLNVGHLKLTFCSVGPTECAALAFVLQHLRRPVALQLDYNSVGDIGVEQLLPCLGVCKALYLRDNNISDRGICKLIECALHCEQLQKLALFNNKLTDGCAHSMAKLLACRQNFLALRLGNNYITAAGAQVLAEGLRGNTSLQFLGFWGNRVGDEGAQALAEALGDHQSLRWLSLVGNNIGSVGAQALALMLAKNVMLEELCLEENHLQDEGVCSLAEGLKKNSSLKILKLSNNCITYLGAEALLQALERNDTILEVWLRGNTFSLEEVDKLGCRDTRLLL
Sequence of Beta-2 adrenergic receptor (P07550 whole entry): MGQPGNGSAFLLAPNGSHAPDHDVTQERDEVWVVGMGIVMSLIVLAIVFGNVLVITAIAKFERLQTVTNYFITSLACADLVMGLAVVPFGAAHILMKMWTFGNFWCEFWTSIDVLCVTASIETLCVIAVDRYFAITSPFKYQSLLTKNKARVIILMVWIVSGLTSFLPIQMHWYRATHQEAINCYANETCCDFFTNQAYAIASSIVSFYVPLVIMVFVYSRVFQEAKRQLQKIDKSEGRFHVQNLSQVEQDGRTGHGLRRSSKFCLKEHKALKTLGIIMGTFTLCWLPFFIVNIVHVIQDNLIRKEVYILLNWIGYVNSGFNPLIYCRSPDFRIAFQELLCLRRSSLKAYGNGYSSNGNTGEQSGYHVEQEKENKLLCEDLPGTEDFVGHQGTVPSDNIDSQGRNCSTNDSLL
Sequence of Beta Lactamase (Q932Y6 whole entry, the tested form may be a part): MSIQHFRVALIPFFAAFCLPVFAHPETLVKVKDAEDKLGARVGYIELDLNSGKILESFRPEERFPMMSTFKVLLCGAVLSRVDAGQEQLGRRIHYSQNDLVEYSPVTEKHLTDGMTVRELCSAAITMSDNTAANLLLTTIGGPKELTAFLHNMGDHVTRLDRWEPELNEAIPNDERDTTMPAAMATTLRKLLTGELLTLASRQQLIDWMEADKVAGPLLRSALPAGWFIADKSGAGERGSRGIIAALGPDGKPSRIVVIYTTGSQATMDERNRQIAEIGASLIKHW

O=[N+]([O-])c1ccc(O)c(Nc2ncnc3ccc(Br)cc23)c1
EC50 [1]: > 150 µM (not active)
IC50 [2]: 5.76 µM (active)
EC50 [3]: 0.429 µM (active)
IC50 [4]: > 20 µM (inactive)
IC50 [5]: 3.53 µM (active)
EC50 [6]: 5.78 µM (active)
IC50 [7]: > 20 µM (inactive)
IC50 [8]: 2.15 µM (active)
IC50 [9]: 6.28 µM (active)
EC50 [10]: 6.15 µM (active)
IC50 [11]: > 20 µM (inactive)
EC50 [12]: > 180 µM (inactive)
EC50 [13]: > 160 µM (inactive)
IC50 [14]: 18.8 µM (inactive)
IC50 [15]: > 20 µM (inactive)
EC50 [16]: > 160 µM (inactive)
EC50 [17]: 2.64 µM (active)
EC50 [18]: 46.2 µM (active)
IC50 [19]: 5.46 µM (active)

COc1ccc(CN2CCC(Oc3ccc(C(=O)N4CCCCC4)cc3)CC2)cc1C
EC50 [20]: 25.3 µM (inactive)

CCOC(=O)c1nc(S(C)(=O)=O)ncc1Cl
AC50 [21]: 35.4 µM (active)
IC50 [22]: 22.4 µM (inactive)
IC50 [23]: 5.62 µM (active)
IC50 [24]: 19.1 µM (active)
AC50 [25]: 20.5 µM (active)
AC50 [26]: 6.37 µM (active)
Absolute IC50 (CHOP) [27]: 10 µM

Cc1ccccc1NC(=O)/C(=C/c1ccco1)c1ccccc1
CC50 [28]: > 40 µM (active)
CC50 [29]: > 40 µM (active)
IC50 [30]: 15.4 µM (active)
